Test [1] concerns infected PBMCs (VSV-G pseudotyped HIV virus). Nature of the test: cells. It is filed as cell-based, human. Particulars: Homo sapiens, PBMC, read-out: SMACK EC50_50% NHS.
Another test in a line: Viking EC50, 50% NHS. It is filed as cell-based. The settings on record: method not described, read-out: Viking EC50_50% NHS.

Take `Cc1ccc(Cn2cnc(C(F)(F)F)c(Oc3cc(Cl)cc(C#N)c3F)c2=O)c(=O)[nH]1` [Example 4, 5-chloro-2-fluoro-3-((1-((6-methyl-2-oxo-1,2-dihydropyridin-3-yl)methyl)-6-oxo-4-(trifluoromethyl)-1,6-dihydropyrimidin-5-yl)oxy)benzonitrile]: the EC50 in test [1] is 197 nM; in “Viking EC50, 50% NHS” it was 41.1 nM.
Regarding `Cc1cc(C)c(Cn2cnc(C(F)(F)C(F)F)c(Oc3c(C)cc(C#N)cc3C)c2=O)c(=O)[nH]1` [Example 10, 4-((1-((4,6-dimethyl-2-oxo-1,2-dihydropyridin-3-yl)methyl)-6-oxo-4-(1,1,2,2-tetrafluoroethyl)-1,6-dihydropyrimidin-5-yl)oxy)-3,5-dimethylbenzonitrile], the EC50 in test [1] was found to be 246 nM.
Regarding `N#Cc1cc(Oc2c(C(F)(F)F)ncn(Cc3cc(F)c[nH]c3=O)c2=O)cc(C(F)F)c1` [Example 35], the EC50 in test [1] came to 314 nM; in “Viking EC50, 50% NHS”, 15.6 nM.
The like results for `Cc1ccc(Cn2cnc(C(F)(F)C(F)F)c(Oc3cc(F)cc(C#N)c3C)c2=O)c(=O)[nH]1` [Example 9] were, in that order, 281 nM and 15.7 nM.
The like results for `Cc1c(C#N)cc(Cl)cc1Oc1c(C(C)F)ncn(Cc2ccc(-c3cc[nH]n3)[nH]c2=O)c1=O` (stereo not drawn) [Example 12, 5-chloro-3-((4-(1-fluoroethyl)-6-oxo-1-((2-oxo-6-(1H-pyrazol-3-yl)-1,2-dihydropyridin-3-yl)methyl)-1,6-dihydropyrimidin-5-yl)oxy)-2-methylbenzonitrile] were, in that order, 374 nM and 127 nM.
As for `Cc1c(C#N)cc(C(F)F)cc1Oc1c(C(F)(F)C(F)F)ncn(Cc2ccc(C(C)(C)O)[nH]c2=O)c1=O` [Example 29, 5-(Difluoromethyl)-3-((1-((6-(2-Hydroxypropan-2-Yl)-2-Oxo-1,2-Dihydropyridin-3-Yl)Methyl)-6-Oxo-4-(1,1,2,2-Tetrafluoroethyl)-1,6-Dihydropyrimidin-5-Yl)Oxy)-2-Methylbenzonitrile], the EC50 in test [1] turned out to be 187 nM; in the test “Viking EC50, 50% NHS”, 29.8 nM.
`Cc1cc(C)c(Cn2cnc(C(F)(F)C(F)F)c(Oc3cc(C(F)F)cc(C#N)c3C)c2=O)c(=O)[nH]1` [Example 5, 5-(difluoromethyl)-3-((1-((4,6-dimethyl-2-oxo-1,2-dihydropyridin-3-yl)methyl)-6-oxo-4-(1,1,2,2-tetrafluoroethyl)-1,6-dihydropyrimidin-5-yl)oxy)-2-methylbenzonitrile]: the EC50 was 161 nM in test [1] and 47.1 nM in “Viking EC50, 50% NHS”.
Turning to `COCc1ccc(Cn2cnc(C(F)(F)C(F)F)c(Oc3cc(C(F)F)cc(C#N)c3C)c2=O)c(=O)[nH]1` [Example 26, 5-(difluoromethyl)-3-((1-((6-(methoxymethyl)-2-oxo-1,2-dihydropyridin-3-yl)methyl)-6-oxo-4-(1,1,2,2-tetrafluoroethyl)-1,6-dihydropyrimidin-5-yl)oxy)-2-methylbenzonitrile], the EC50 in test [1] is 90.1 nM; in the test “Viking EC50, 50% NHS”, 29.3 nM.
Take `Cc1ccc(Cn2cnc(C(F)(F)C(F)F)c(Oc3cc(Cl)cc(C#N)c3F)c2=O)c(=O)[nH]1` [Example 39, 5-Chloro-2-Fluoro-3-((1-((6-Methyl-2-Oxo-1,2-Dihydropyridin-3-Yl)Methyl)-6-Oxo-4-(1,1,2,2-Tetrafluoroethyl)-1,6-Dihydropyrimidin-5-Yl)Oxy)Benzonitrile]: the EC50 in test [1] came out at 162 nM; in “Viking EC50, 50% NHS”, 33.5 nM.
Take `N#Cc1cc(Cl)cc(Oc2c(C(F)(F)F)ncn(Cc3cc(F)c[nH]c3=O)c2=O)c1Cl` [Example 36, 2,5-dichloro-3-((1-((5-fluoro-2-oxo-1,2-dihydropyridin-3-yl)methyl)-6-oxo-4-(trifluoromethyl)-1,6-dihydropyrimidin-5-yl)oxy)benzonitrile]: the EC50 in test [1] was determined as 369 nM; in the test “Viking EC50, 50% NHS” it was 50 nM.
The like results for `Cc1c(C#N)cc(C(F)F)cc1Oc1c(C(F)(F)C(F)(F)F)ncn(Cc2cc(F)c[nH]c2=O)c1=O` [Example 38, 5-(difluoromethyl)-3-((1-((5-fluoro-2-oxo-1,2-dihydropyridin-3-yl)methyl)-6-oxo-4-(perfluoroethyl)-1,6-dihydropyrimidin-5-yl)oxy)-2-methylbenzonitrile] were, in that order, 191 nM and 96.8 nM.
For the compound `N#Cc1cc(Cl)cc(Oc2c(C(F)(F)C(F)F)ncn(Cc3ccc[nH]c3=O)c2=O)c1Cl` [Example 8, 2,5-dichloro-3-((6-oxo-1-((2-oxo-1,2-dihydropyridin-3-yl)methyl)-4-(1,1,2,2-tetrafluoroethyl)-1,6-dihydropyrimidin-5-yl)oxy)benzonitrile], the EC50 in test [1] stood at 495 nM; in “Viking EC50, 50% NHS”, 26.9 nM.
The like results for `Cc1c(C#N)cc(C(F)F)cc1Oc1c(C(F)(F)F)ncn(Cc2ccc[nH]c2=O)c1=O` [Example 16, 5-(difluoromethyl)-2-methyl-3-((6-oxo-1-((2-oxo-1,2-dihydropyridin-3-yl)methyl)-4-(trifluoromethyl)-1,6-dihydropyrimidin-5-yl)oxy)benzonitrile] were, in that order, 268 nM and 7.08 nM.
The like results for `Cc1cc(C)c(Cn2cnc(C(F)(F)C(F)F)c(Oc3cc(Cl)cc(C#N)c3)c2=O)c(=O)[nH]1` [Example 6, 3-chloro-5-((1-((4,6-dimethyl-2-oxo-1,2-dihydropyridin-3-yl)methyl)-6-oxo-4-(1,1,2,2-tetrafluoroethyl)-1,6-dihydropyrimidin-5-yl)oxy)benzonitrile] were, in that order, 263 nM and 37.5 nM.
The like results for `CC(F)c1ncn(Cc2ccc(CO)[nH]c2=O)c(=O)c1Oc1cc(Cl)cc(C#N)c1F` (single isomer, unassigned) [Example 32, 5-Chloro-2-Fluoro-3-((4-(1-Fluoroethyl)-1-((6-(Hydroxymethyl)-2-Oxo-1,2-Dihydropyridin-3-Yl)Methyl)-6-Oxo-1,6-Dihydropyrimidin-5-Yl)Oxy)Benzonitrile] were, in that order, 377 nM and 18.2 nM.
In the case of `Cc1cc(C#N)cc(Oc2c(C(C)(F)F)ncn(Cc3c(C)cc(C)[nH]c3=O)c2=O)c1` [Example 15, 3-((4-(1,1-difluoroethyl)-1-((4,6-dimethyl-2-oxo-1,2-dihydropyridin-3-yl)methyl)-6-oxo-1,6-dihydropyrimidin-5-yl)oxy)-5-methylbenzonitrile], the EC50 in test [1] turned out to be 384 nM; in the test “Viking EC50, 50% NHS” it was 21.9 nM.
As to `Cc1c(C#N)cc(C(F)F)cc1Oc1c(C(F)(F)C(F)F)ncn(Cc2ccc(CCCO)[nH]c2=O)c1=O` [Example 28, 5-(difluoromethyl)-3-((1-((6-(3-hydroxypropyl)-2-oxo-1,2-dihydropyridin-3-yl)methyl)-6-oxo-4-(1,1,2,2-tetrafluoroethyl)-1,6-dihydropyrimidin-5-yl)oxy)-2-methylbenzonitrile], the EC50 in test [1] turned out to be 73.8 nM.
The same measure, in the same setting: the figure for `Cc1c(C#N)cc(C(F)F)cc1Oc1c(C(F)(F)C(F)F)ncn(Cc2cc(Br)c[nH]c2=O)c1=O` [Example 11, 3-((1-((5-bromo-2-oxo-1,2-dihydropyridin-3-yl)methyl)-6-oxo-4-(1,1,2,2-tetrafluoroethy)-1,6-dihydropyrimidin-5-yl)oxy)-5-(difluoromethyl)-2-methylbenzonitrile] is 402 nM.

The values are drawn from patent US20250214962A1, “PYRIDINONE DERIVATIVES AS SELECTIVE CYTOTOXIC AGENTS AGAINST HIV INFECTED CELLS” (Merck Sharp & Dohme LLC, priority 2019, published 2025).
